What was measured:
[1] = biological target: High affinity choline transporter 1 (Homo sapiens) (UniProt Q9GZV3); test: Displacement of [3H]hemicholinium-3 from recombinant human choline transporter at 10 uM after 60 mins by scintillation counting method
[2] = biological target: Sodium channel protein type 5 subunit alpha (Homo sapiens, UniProt Q14524); test: Inhibition of human Nav1.5 expressed in HEK cells by automated patchXpress electrophysiology method; type: ADME, cell-based
[3] = biological target: Sodium channel protein type 1 subunit alpha (Homo sapiens, UniProt P35498); test: Inhibition of human Nav1.1 expressed in HEK cells by patch clamp electrophysiology method; type: cell-based
[4] = biological target: Sodium channel protein type 3 subunit alpha (Homo sapiens, UniProt Q9NY46); test: Inhibition of human Nav1.3 expressed in HEK cells by patch clamp electrophysiology method; type: cell-based
Sodium channel protein type 3 subunit alpha, sequence (Q9NY46 whole entry): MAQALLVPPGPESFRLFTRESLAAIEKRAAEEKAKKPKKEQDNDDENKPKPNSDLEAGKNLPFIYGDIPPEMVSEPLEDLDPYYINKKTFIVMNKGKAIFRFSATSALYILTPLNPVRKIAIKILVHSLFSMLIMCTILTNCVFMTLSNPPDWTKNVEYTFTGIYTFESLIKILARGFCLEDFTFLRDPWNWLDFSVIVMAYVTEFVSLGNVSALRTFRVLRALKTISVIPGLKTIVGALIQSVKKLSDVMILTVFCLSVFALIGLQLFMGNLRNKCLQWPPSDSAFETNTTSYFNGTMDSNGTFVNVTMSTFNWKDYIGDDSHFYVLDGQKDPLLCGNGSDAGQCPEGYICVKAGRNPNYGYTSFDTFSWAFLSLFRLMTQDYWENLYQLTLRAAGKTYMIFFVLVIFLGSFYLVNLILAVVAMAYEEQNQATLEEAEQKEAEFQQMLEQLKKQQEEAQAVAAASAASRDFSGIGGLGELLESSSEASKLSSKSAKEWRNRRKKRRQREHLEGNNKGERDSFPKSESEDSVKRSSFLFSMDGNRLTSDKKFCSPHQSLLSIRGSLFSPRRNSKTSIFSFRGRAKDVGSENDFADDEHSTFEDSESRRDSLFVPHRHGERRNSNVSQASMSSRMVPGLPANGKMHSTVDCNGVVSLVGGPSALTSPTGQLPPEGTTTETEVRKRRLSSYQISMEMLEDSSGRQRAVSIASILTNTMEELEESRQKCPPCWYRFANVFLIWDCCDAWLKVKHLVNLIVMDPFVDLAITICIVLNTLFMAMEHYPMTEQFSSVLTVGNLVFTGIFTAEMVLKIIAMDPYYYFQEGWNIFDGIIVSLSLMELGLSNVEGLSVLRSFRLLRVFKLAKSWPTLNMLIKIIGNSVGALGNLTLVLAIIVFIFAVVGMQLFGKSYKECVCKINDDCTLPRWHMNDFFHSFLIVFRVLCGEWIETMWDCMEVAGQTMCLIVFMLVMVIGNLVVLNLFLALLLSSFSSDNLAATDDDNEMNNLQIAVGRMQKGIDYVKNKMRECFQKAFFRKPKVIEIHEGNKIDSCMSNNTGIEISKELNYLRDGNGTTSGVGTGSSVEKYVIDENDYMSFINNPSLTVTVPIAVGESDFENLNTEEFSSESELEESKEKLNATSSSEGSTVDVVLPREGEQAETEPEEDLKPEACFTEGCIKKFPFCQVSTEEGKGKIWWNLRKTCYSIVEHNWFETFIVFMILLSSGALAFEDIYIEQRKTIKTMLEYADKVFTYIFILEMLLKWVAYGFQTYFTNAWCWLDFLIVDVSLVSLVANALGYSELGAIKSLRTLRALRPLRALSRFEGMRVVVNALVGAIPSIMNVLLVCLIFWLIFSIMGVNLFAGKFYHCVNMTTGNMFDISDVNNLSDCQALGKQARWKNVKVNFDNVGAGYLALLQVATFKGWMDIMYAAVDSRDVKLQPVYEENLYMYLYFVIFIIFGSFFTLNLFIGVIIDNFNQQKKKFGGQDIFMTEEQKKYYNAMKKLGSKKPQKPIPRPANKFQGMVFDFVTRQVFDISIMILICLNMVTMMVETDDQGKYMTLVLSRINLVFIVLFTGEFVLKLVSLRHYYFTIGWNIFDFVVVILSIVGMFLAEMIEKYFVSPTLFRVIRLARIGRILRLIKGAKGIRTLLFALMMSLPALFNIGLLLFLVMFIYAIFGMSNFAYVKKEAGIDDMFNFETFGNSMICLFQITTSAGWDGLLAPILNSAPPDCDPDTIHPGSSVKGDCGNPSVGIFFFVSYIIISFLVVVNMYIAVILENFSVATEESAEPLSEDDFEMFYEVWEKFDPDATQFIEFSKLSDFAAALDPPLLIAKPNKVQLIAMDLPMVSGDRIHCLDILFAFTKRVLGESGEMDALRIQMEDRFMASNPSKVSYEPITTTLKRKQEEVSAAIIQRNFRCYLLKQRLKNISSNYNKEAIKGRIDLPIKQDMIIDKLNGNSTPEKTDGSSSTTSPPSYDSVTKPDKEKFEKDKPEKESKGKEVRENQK

[5] = biological target: Sodium channel protein type 8 subunit alpha (Homo sapiens, UniProt Q9UQD0); test: Inhibition of human Nav1.6 expressed in HEK cells by patch clamp electrophysiology method; type: cell-based
[6] = Drug recovery in bile duct-cannulated rat bile at 0.3 mg/kg, iv via infusion for 1 hr; type: ADME, organism-based; settings: read-out: Drug recovery
[7] = Biliary clearance in rat at 0.3 mg/kg, iv via infusion for 1 hr; type: ADME, organism-based, Bile; settings: in vivo
[8] = Half-life in rat at 0.3 mg/kg, iv via infusion for 1 hr; type: ADME, organism-based; settings: in vivo
[9] = Clearance in rat plasma at 0.3 mg/kg, iv via infusion for 1 hr; type: ADME, organism-based
[10] = Unbound clearance rat plasma at 0.3 mg/kg, iv via infusion for 1 hr; type: ADME, organism-based; settings: in vivo
[11] = Unbound clearance in iv dosed mouse plasma; type: ADME, organism-based; settings: in vivo
Cytochrome P450 2C8 = Cytochrome P450 2C8 (Homo sapiens, UniProt P10632); test: Inhibition of CYP2C8 (unknown origin); type: ADME
Cytochrome P450 2C8, sequence (P10632 whole entry): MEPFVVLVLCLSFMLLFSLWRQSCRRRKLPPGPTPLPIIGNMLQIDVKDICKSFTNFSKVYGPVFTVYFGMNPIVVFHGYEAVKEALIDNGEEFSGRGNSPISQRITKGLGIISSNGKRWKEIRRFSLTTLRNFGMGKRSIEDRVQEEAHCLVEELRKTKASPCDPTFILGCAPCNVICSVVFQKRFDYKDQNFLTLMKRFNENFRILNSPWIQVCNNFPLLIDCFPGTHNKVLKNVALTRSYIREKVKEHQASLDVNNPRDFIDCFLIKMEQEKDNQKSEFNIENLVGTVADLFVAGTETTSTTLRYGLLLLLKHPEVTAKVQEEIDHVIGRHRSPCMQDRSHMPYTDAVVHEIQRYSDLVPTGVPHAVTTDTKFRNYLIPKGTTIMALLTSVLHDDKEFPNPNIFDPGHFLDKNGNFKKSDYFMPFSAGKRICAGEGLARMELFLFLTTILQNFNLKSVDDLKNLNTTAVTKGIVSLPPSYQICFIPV

[12] = Protein binding in human plasma assessed as fraction unbound; type: ADME, cell-free
[13] = Intrinsic clearance in dog hepatocytes assessed per million cells; type: ADME, cell-based, Canis lupus familiaris, Hepatocyte; settings: read-out: CLH
[14] = Intrinsic clearance in rat liver microsomes; type: ADME, microsome; settings: read-out: CLH
[15] = Permeability in RRCK cells; type: ADME, cell-based, Canis lupus familiaris, MDCKII-LE; settings: dog, MDCK; read-out: permeability
[16] = Inhibition of cynomolgus monkey Nav1.7 expressed in HEK cells by automated patchXpress electrophysiology method; type: cell-based; settings: Macaca fascicularis, HEK293
[17] = biological target: Adenosine receptor A2a (Homo sapiens) (UniProt P29274); test: Agonist activity at recombinant human full-length adenosine A2a receptor expressed in HEK293 cells assessed as effect on impedance at 10 uM by cellular dielectric spectroscopic method relative to control; type: functional, cell-based
Adenosine receptor A2a (Homo sapiens), sequence (P29274 whole entry): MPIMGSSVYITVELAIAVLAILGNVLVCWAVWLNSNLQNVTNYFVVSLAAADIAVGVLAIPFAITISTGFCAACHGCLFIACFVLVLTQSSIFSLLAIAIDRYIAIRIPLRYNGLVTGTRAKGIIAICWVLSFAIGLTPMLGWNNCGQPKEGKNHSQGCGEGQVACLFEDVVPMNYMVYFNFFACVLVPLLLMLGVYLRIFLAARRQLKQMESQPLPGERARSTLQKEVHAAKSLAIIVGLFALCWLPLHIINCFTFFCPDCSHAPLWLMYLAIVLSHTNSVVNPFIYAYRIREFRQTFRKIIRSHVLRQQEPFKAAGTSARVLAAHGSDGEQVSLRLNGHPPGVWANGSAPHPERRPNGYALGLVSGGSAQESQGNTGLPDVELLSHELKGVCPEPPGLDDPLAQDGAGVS

[18] = biological target: Type-1 angiotensin II receptor (Homo sapiens) (UniProt P30556); test: Agonist activity at recombinant human AT1 receptor expressed in HEK293 cells assessed as increase in calcium flux at 10 uM by spectrophotometric method relative to control; type: functional, cell-based
[19] = biological target: Histamine H1 receptor (Homo sapiens) (UniProt P35367); test: Agonist activity at human H1 receptor expressed in HEK293 cells assessed as increase in calcium flux at 10 uM by fluorimetric method relative to control; type: functional, cell-based
[20] = biological target: Histamine H2 receptor (Homo sapiens) (UniProt P25021); test: Agonist activity at recombinant human H2 receptor expressed in CHOK1 cells assessed as increase in cAMP accumulation at 10 uM measured after 30 mins by HTRF assay relative to control; type: functional, cell-based
Histamine H2 receptor (Homo sapiens), sequence (P25021 whole entry): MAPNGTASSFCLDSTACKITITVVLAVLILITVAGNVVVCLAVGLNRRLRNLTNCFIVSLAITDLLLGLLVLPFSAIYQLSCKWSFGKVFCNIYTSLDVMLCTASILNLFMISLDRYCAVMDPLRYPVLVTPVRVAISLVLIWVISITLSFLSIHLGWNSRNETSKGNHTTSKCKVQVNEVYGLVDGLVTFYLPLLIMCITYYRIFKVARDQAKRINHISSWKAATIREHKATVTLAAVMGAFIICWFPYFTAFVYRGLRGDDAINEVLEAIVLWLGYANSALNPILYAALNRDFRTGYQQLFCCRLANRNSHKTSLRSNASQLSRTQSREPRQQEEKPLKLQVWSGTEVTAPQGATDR

[21] = biological target: 5-hydroxytryptamine receptor 1B (Homo sapiens, UniProt P28222); test: Agonist activity at human 5-HT1B receptor expressed in HeLa cells assessed as increase in cAMP accumulation at 10 uM measured after 20 mins by HTRF method relative to control; type: functional, cell-based
[22] = biological target: 5-hydroxytryptamine receptor 2A (Homo sapiens) (UniProt P28223); test: Agonist activity at human 5-HT2A receptor expressed in HEK293 cells assessed as increase in IP1 accumulation at 10 uM measured after 30 mins by HTRF method relative to control; type: functional, cell-based
[23] = biological target: 5-hydroxytryptamine receptor 2B (Homo sapiens) (UniProt P41595); test: Agonist activity at human 5-HT2B receptor expressed in CHOK1 cells assessed as increase in IP1 accumulation at 10 uM measured after 30 mins by HTRF method relative to control; type: functional, cell-based
5-hydroxytryptamine receptor 2B (Homo sapiens), sequence (P41595 whole entry): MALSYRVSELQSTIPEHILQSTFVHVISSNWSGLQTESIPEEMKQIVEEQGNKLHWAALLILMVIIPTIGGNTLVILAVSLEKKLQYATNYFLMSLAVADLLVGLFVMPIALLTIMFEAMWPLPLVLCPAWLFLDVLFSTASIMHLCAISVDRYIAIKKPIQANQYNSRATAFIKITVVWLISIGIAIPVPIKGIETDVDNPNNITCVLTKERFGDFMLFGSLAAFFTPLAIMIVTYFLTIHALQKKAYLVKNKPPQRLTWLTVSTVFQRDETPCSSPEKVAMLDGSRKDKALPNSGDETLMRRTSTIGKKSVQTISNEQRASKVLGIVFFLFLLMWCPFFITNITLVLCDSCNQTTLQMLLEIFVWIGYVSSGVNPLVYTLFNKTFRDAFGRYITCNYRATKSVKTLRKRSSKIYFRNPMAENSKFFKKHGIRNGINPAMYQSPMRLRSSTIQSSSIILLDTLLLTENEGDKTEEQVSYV

[24] = biological target: Beta-2 adrenergic receptor (Homo sapiens) (UniProt P07550); test: Antagonist activity at recombinant human beta2 receptor expressed in CHOK1 cells assessed as inhibition of isoproterenol-induced cAMP accumulation at 10 uM after 30 mins by HTRF assay relative to control; type: functional, cell-based
Beta-2 adrenergic receptor (Homo sapiens), sequence (P07550 whole entry, looked up): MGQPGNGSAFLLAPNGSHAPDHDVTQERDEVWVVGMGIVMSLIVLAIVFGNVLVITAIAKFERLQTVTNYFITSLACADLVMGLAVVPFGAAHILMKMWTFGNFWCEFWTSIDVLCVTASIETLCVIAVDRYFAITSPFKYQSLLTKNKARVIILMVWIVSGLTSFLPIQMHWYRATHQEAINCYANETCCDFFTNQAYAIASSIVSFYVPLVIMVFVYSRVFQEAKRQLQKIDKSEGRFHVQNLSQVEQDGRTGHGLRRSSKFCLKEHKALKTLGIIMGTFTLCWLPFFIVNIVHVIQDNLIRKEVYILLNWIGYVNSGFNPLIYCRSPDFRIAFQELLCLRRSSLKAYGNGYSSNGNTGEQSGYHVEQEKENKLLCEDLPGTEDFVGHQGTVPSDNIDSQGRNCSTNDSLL

[25] = biological target: D(1A) dopamine receptor (Homo sapiens) (UniProt P21728); test: Antagonist activity at recombinant human D1 receptor expressed in CHOK1 cells assessed as inhibition of dopamine-induced cAMP accumulation at 10 uM after 30 mins by HTRF assay relative to control; type: functional, cell-based
[26] = biological target: Muscarinic acetylcholine receptor M3 (Homo sapiens) (UniProt P20309); test: Antagonist activity at human M3 receptor expressed in CHOK1 cells assessed as inhibition of acetylcholine-induced calcium flux at 10 uM by fluorimetric method relative to control; type: functional, cell-based
Rattus norvegicus [27] = species on record: Rattus norvegicus; test: Displacement of [3H]D888 from L-type calcium channel verapamil binding site in rat brain at 10 uM measured after 120 mins by scintillation counting method
Rattus norvegicus [28] = species on record: Rattus norvegicus; test: Displacement of [3H]nitrendipine from L-type calcium channel dihydropyridine (nifedipine) binding site in rat brain 10 uM measured after 90 mins by scintillation counting method
Rattus norvegicus [29] = species on record: Rattus norvegicus; test: Displacement of [3H]diltiazem from L-type calcium channel diltiazem binding site in rat brain at 10 uM after 120 mins by scintillation counting method
Homo sapiens = species on record: Homo sapiens; test: Inhibition of GABA-A receptor benzodiazepine site (unknown origin) at 10 uM by radioligand binding assay relative to control
[30] = biological target: Epidermal growth factor receptor (Homo sapiens) (UniProt P00533); test: Displacement of [125I] EGF from EGFR in human A431 cells at 10 uM after 60 mins by scintillation counting method; type: cell-based
[31] = biological target: Voltage-gated inwardly rectifying potassium channel KCNH2 (Homo sapiens, UniProt Q12809); test: Inhibition of human ERG by PatchXpress electrophysiology method
[32] = biological target: Sodium-dependent noradrenaline transporter (Homo sapiens, UniProt P23975); test: Displacement of [3H]nisoxetine from recombinant human norepinephrine transporter after 120 min by scintillation counting method
Sodium-dependent noradrenaline transporter, sequence (P23975 whole entry): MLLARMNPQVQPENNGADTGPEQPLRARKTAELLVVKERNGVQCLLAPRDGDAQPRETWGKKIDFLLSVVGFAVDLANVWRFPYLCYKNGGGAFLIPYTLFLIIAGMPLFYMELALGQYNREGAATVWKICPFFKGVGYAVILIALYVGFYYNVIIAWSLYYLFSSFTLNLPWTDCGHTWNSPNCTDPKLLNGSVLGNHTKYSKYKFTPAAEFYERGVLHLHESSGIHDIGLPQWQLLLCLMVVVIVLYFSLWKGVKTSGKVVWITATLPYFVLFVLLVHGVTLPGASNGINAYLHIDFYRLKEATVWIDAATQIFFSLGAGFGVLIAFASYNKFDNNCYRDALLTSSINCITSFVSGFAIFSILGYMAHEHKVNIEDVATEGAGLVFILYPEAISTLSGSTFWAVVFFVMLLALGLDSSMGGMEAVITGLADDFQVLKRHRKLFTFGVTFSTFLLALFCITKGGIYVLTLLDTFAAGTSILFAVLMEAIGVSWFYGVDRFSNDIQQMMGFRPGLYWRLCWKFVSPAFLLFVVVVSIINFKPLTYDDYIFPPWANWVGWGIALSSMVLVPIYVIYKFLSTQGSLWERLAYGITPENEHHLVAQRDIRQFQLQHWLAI

[33] = Protein binding in dog plasma assessed as fraction unbound at 2 uM; type: ADME, cell-free, Canis lupus familiaris
[34] = Protein binding in non-human primate plasma assessed as fraction unbound at 2 uM; type: ADME, cell-free, Macaca mulatta; settings: rhesus monkey

With `N#Cc1cc(S(=O)(=O)Nc2ncns2)ccc1Oc1ccc(-c2cccc(C(F)(F)F)c2)cc1-c1ccnc(CNCCC2CCNCC2)c1` the inhibition [1] was 99%, the IC50 [2] was 2 to 2.59 µM and the IC50 [3] was 0.309 to 0.314 µM. It also gave an IC50 [4] of 6.44 to 11.5 µM, an IC50 [5] of 0.00546 to 0.0058 µM and a dose excreted at 1 h [6] of 74%. It also gave a CL [7] of 44 mL/min/kg, a half-life [8] of 12.6 min and a clearance [9] of 83.1 mL/min/kg. It also gave a CL free [10] of 30218 mL/min/kg, a CL free [11] of 12989 mL/min/kg and an IC50 (Cytochrome P450 2C8) of 6.17 µM. For the same compound, the fraction unbound [12] was 0.00497, the hepatocyte CLint [13] was under 6 µL/min/1e6 cells and the microsomal CLint [14] was under 14.1 µL/min/mg. The Papp [15] was 0.62 ×10⁻⁶ cm/s, the IC50 [16] was under 30 pM and the Activity [17] was -2%. For the same compound, the Activity [18] was -3%, the Activity [19] was 4% and the Activity [20] was -4%. It also gave an Activity [21] of 141%, an Activity [22] of -1% and an Activity [23] of 1%. For the same compound, the inhibition [24] was 11%, the inhibition [25] was 30% and the inhibition [26] was 29%. It also gave an inhibition (Rattus norvegicus [27]) of 35%, an inhibition (Rattus norvegicus [28]) of 31% and an inhibition (Rattus norvegicus [29]) of 40%. The inhibition (Homo sapiens) was 35%, the inhibition [30] was 35% and the IC50 [31] was over 25.2 µM. It also gave an IC50 [32] of 4.25 µM, a Ki [32] of 3.16 µM and a fraction unbound at 2 µM [33] of 0.003. It also gave a fraction unbound at 2 µM [34] of 0.001.
